Drawing on patent EP0423419B1, “Inhibitive agent against activity of alpha-amylase” (MITSUI NORIN CO., LTD., priority 1989, dated 1991), this text covers LD50 and IC50 for 8 molecules.

pIC50: −log10 of the molar value. Bounds are passed on as bounds.

Tested on in the first series: not listed separately
The series can be described thus: Acute toxicity in mice (LD50). As to conditions: mouse, in vivo, ip; intraperitoneal administration, ICR mice, Van der Waerden method; read-out: LD₅₀. As for the experimental part:
An animal test was conducted by using ICR mice as the test animals to examine the acute toxicity of the inventive inhibitive agent against the activity of α-amylase. The values of LD₅₀ calculated according to the Van der Waerdrn method within the confidence limit were: 2412 mg/kg in the oral administration of the same crude mixture of catechin compounds as used in Example 2; 55.2 mg/kg in the intraperitoneal administration of a crude mixture of theaflavin compounds of the composition shown in Table 5 below; and 150 mg/kg in the intraperitoneal administration of epigallocatechin gallate.
As to `O=C(O[C@@H]1Cc2c(O)cc(O)cc2O[C@@H]1c1cc(O)c(O)c(O)c1)c1cc(O)c(O)c(O)c1` [Epigallocatechin gallate, (-)epigallocatechin gallate], the LD50 is 150 mg/kg.

Another series concerns the target T1, α-amylase prepared from human saliva (Homo sapiens, UniProt P0DUB6).
T1 construct: α-amylase prepared from human saliva; purchased Sigma Co; host or cells: human saliva
T1 sequence (P0DUB6 16-511): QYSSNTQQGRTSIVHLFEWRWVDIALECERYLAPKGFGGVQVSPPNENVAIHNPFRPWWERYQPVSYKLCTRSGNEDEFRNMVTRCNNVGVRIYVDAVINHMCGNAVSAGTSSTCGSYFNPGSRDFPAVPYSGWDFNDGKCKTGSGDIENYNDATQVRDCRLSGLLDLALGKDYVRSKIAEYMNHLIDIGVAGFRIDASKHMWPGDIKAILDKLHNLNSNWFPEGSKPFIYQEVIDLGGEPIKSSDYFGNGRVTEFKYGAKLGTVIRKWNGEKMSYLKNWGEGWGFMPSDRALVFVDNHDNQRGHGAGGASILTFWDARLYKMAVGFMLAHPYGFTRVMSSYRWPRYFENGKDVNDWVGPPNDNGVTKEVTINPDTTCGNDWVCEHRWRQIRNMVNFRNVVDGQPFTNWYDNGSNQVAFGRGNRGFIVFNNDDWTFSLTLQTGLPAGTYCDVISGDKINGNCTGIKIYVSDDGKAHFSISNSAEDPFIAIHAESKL
The series can be described thus: Inhibition of the activity of α-amylase (reducing sugar from soluble starch, Bernfeld method). Format: biochemical.
Settings: not given
In turn, `O=C(O)c1cc(O)c(O)c(O)c1` [Gallic acid, reference compound] gave a pIC50 of less than 3.00.

Still in this series, the particulars now being: human saliva α-amylase, 10 min preincubation at 37°C, soluble starch 2.0 mg/ml; read-out: Concentration for 50% inhibition.
Consider `Oc1cc(O)c2c(c1)O[C@H](c1cc(O)c(O)c(O)c1)[C@H](O)C2` [Epicagallcatechin, (-)epigallocatechin], for which the pIC50 was less than 3.00.
On to `O=C(O[C@@H]1Cc2c(O)cc(O)cc2O[C@@H]1c1ccc(O)c(O)c1)c1cc(O)c(O)c(O)c1` [Epicatechin gallate, (-)epicatechin gallate], for which the pIC50 was 3.89.
With `Oc1cc(O)c2c(c1)O[C@H](c1ccc(O)c(O)c1)[C@H](O)C2` [Epicatechin, (-)epicatechin], the pIC50 is less than 3.00.
On the same count and under the same terms, under `O=C(O[C@@H]1Cc2c(O)cc(O)cc2O[C@@H]1c1cc(O)c(O)c(O)c1)c1cc(O)c(O)c(O)c1` [Epigallocatechin gallate, (-)epigallocatechin gallate] stands 3.59; under `O=c1c(O)cc([C@H]2Oc3cc(O)cc(O)c3C[C@H]2O)cc2c([C@H]3Oc4cc(O)cc(O)c4C[C@H]3O)cc(O)c(O)c12` [Free theaflavin, free theaflavin], 4.74.
Take `O=C(O[C@@H]1Cc2c(O)cc(O)cc2O[C@@H]1c1cc(O)c(=O)c2c(O)c(O)cc([C@H]3Oc4cc(O)cc(O)c4C[C@H]3O)c2c1)c1cc(O)c(O)c(O)c1` [Theaflavin monogallate A, theaflavin monogallate A]: the pIC50 is 6.00.
Regarding `O=C(O[C@@H]1Cc2c(O)cc(O)cc2O[C@@H]1c1cc(O)c(O)c2c(=O)c(O)cc([C@H]3Oc4cc(O)cc(O)c4C[C@H]3O)cc12)c1cc(O)c(O)c(O)c1` [Theaflavin monogallate B, theaflavin monogallate B], the pIC50 is 5.77.
